Data on one molecule can be found in US20100120867A1, “METHOD OF TREATMENT” (Novartis AG, priority 2007, published 2010).

This assay is described as follows: Multicenter, double-blind, randomized, placebo-controlled clinical study in subjects with frequent heartburn. It is filed as in vivo, human. How it is done:
A multicenter, double-blind, randomized, parallel group, placebo-controlled clinical study is carried out to investigate the safety and efficacy of lansoprazole, 15 mg (or alternatively 30 mg) once daily, in preventing frequent heartburn.
The trial population consists of subjects (male or female, at least 18 years old) with frequent heartburn, i.e. heartburn occurring a minimum of 2 or more days a week over the past month, that was untreated. A total of 576 subjects with frequent heartburn (288 per group) is randomized in order to yield 546 subjects.
The study population is divided equally between a treatment group receiving lansoprazole capsules, 15 mg (or alternatively, 30 mg) and a control group receiving placebo capsules. All statistical tests used to compare the two treatment groups are two-sided, with probability of Type I error=0.05.
Lansoprazole 15 mg (or alternatively, 30 mg) capsules or placebo are taken once daily for 14 days during the double blind treatment period.
Most measures of efficacy are derived from data recorded in the subject's IVRS diary after a daily self-assessment. Subjects are given instructions to complete the IVRS diary in the morning for the previous 24-hour period on a daily basis for all phases of the study. The diary is designed to collect information on the occurrence of daytime and nighttime heartburn episodes, maximum heartburn severity, and rescue medication consumption for the previous 24 hours. In addition, the date and time of study medication consumption are recorded.
To classify heartburn severity, subjects are instructed to use the most intense episode of the 24-hour period according to the following Intensity Scale Definitions (Table 6):
Therefore, the primary evaluation is the period between the first dose (Day 1) through the end of the double blind treatment period, i.e. Days 1-14 for 24-hour days. “No heartburn over 24 hours” on each of Days 1-14 is defined as the combined experience of daytime and nighttime heartburn. […]
This variable is analyzed as the percentage of nighttimes with the outcome of no nighttime heartburn. […]

Where [1] appears, read: 14-day course of therapy, randomized treatment group.

`Cc1c(OCC(F)(F)F)ccnc1C[S+]([O-])c1nc2ccccc2[nH]1` (stereo not drawn) [Lansoprazole]: the “efficacy in the relief of frequent heartburn compared to placebo” value (15 mg once daily, 14 days) is listed as “superior in efficacy to placebo”. Further, under setting [1], the “proportion of 24-hour days substantially free of heartburn compared to placebo” value is “statistically significant increase” and the “proportion of nighttimes substantially free of heartburn compared to placebo” value is on record as “statistically significant increase”.
